Series [1] has as its system legumain+ 293 cells. The series is described as follows: modified Boyden chamber invasion assay. The format is cell-based, human. As to the method:
(§1) Cell invasion and mobility assays. Cell migration and invasion assays were performed as described with modifications (Albini et al., 1987). Stock solutions (15 mg/ml) of Matrigel basement membrane matrix (Becton Dickinson, Bedford, Mass.) were stored at −80° C. in 100 μl aliquots. After thawing on ice, the stock was diluted 1:50 with cold serum-free culture media and immediately applied to each membrane insert (8 μm pore) that formed the upper chambers of the multi-well invasion assay plate. The Matrigel was incubated overnight in a sterile laminar tissue culture hood. The membranes were hydrated for 2 hours with 250 μl of serum-free medium and excess medium was removed by aspiration. Medium containing 10% FBS was added to the bottom of each well. A suspension of 10^5 cells in 150 μl of serum-free medium was added to the upper chamber and incubated for 12 hours at 37° C., 5% CO2. At the indicated times, the membrane inserts were removed from the plate and the non-invading cells were removed from the upper surface. Membrane associated cells were stained with 0.09% crystal violet for 30 minutes and washed twice with PBS. The invading cells were counted microscopically. Cell mobility assays were performed in a similar manner except the membrane inserts were not coated with Matrigel, and duration was shortened. […]

Series [2] concerns legumain+ 293 cells. In words: WST-1 cytotoxicity assay, legumain+ 293 cells. The following applies: 48 h. As to the method: (§2) Cytotoxic assays. The WST-1 cell proliferation reagent (Roche Molecular Chemicals, Germany) was used to determine cell proliferation by quantification of cellular metabolic activity. Control 293 cells and legumain+ 293 cells were cultivated in microtiter plates (5×10^3 cells per well in 100 μl) and were incubated with serial concentrations of legubicin or doxorubicin for 48 h. Subsequently, 10 μl of WST-1 solution (1 mg/ml WST-1, 25 μM -methyldibenzopyrazine methyl sulfate) was added per well, and mixtures were incubated for an additional 4 h. The tetrazolium salt WST-1 (4-[3-(4-lodophenyl)-2-(4-nitrophenyl)-2H-5-tetrazolio-1,3-benzene disfonate) was cleaved by the mitochondrial succinate-tetrazolium-reductase system to formazan in cells which directly correlates to the number of metabolically viable cells in the culture. The amount of formazan salt was quantified in three replicates by absorbance at 450 nm using a micro-plate reader (Molecular Devices, Palo Alto, Calif.).
(§3) Cytotoxicity assays. The WST-1 cell proliferation reagent (Roche Molecular Chemicals, Germany) was used to determine cell proliferation by quantization of cellular metabolic activity. […] The amount of formazan salt was quantified in three replicates by absorbance at 450 nm using a micro-plate reader (Molecular Devices, Palo Alto, Calif.).

Series [3] relates to control 293 cells. In words: WST-1 cytotoxicity assay, control 293 cells. The following applies: control 293 cells, 48 h. How it is done:
as §2, §3
For orientation: Tetrazolium assays rely on reduction of a dye to a coloured formazan, in cell work by metabolically active cells.

In series [4] the test system is CT26 murine colon carcinoma. In words: CT26 syngeneic murine colon carcinoma model. The format is in vivo, Balb/c mice. From the text:
Animal models. […] Balb/C mice aged 4 to 6 weeks from the breeding colony were inoculated with 500,000 syngeneic CT26 tumor cells per site subcutaneously in the back. […] Treatment was repeated at 2 day intervals. The human 293 tumor models were generated in WEHI nude mice (The Scripps Research Institute breeding colony). […] Tumor growth and physical signs were monitored daily including any gross evidence of tumor necrosis, local tumor ulceration as well as evidence of toxicity including mobility, response to stimulus, eating, and weight of each animal. These procedures have been reviewed and approved by the Institutional Animal Care and Use Committee at The Scripps Research Institute. The work was conducted in The Scripps Research Institute facilities which are accredited by the Association for the Assessment and Accreditation of Laboratory Animal Care. The Scripps Research Institute maintains an assurance with the Public Health Service, is registered with the United States Department of Agriculture and is in compliance with all regulations relating to animal care and welfare.
Animal models. […] Treatment was three times per week for two weeks.

In series [5] the test system is legumain+ 293 cells. In words: in vitro migration assay. It is filed as cell-based, human. As to the method:
as §1

Series [6] deals with T1, cell surface bound legumain (Homo sapiens, UniProt Q99538).
T1 construct: expressed in transfected cells; host or cells: 293 cells stably expressing human legumain (legumain+ 293)
The series is described as follows: gelatin zymogram, activation of progelatinase A by cells expressing legumain. It is filed as cell-based. Particulars: zymogen incubated with cells 10 minutes. How it is done: Zymogram. Control 293 cells and legumain+ 293 cells were plated into 96 wells plates at a cell density of 4,000 cells/well. The cells were allowed to attach overnight, then were serum starved for four hours. Zymogen forms of metalloproteinase 2 or 9 (Chemicon, Temecula, Calif.) were added at concentration of 0.1 μg/well with 50 μl reaction buffer (39.5 mM citric acid, 121 mM Na2HPO4, pH 5.8, 1 mM EDTA, and 0.8% […]) and the reactions were continued for 10 minutes. The reactants were collected and mixed with an equal volume of SDS sample buffer and held at room temperature for 10 minutes then applied to a zymogram gel (10% Tris-Glycine gel with 0.1% gelatin substrate). After electrophoresis, the gel was washed briefly and incubated with 2.5% (v/v) Triton X-100 at room temperature for 30 minutes with gentle agitation. Digestion of the incorporated gelatin by activated collagenase was conducted in buffer ([…], pH 7.25, 200 mM NaCl, […], 0.05% Brij-35, 0.02% NaN3) overnight. The gel was stained with Coomassie Blue R250 (Novex, San Diego, Calif.) and the presence of a protease was readily observed as a clear band.
Activation of progelatinase A by legumain. […] Zymogen forms of gelatinase A and B were incubated with the cells for 10 minutes, and the reaction products were analyzed by zymography. […] Moreover, no effect of legumain on zymogen gelatinase B was detected.

The subject of series [7] is legumain-promoted cancer cell invasion. In words: cancer cell invasion assay with recombinant legumain protein. The format is cell-based. Particulars: recombinant legumain protein added. How it is done: as §1
The subject of series [8] is legumain-expressing 293 (293L) cells. In words: TNF-α induced cell death with or without AEPI-5. It is filed as cell-based, human. The following applies: with or without AEPI-5, function of TNF-α concentration.
Series [9] has the same test system. The series is described as follows: UV-induced apoptosis of legumain-expressing 293 cells. It is filed as cell-based, human. The following applies: dead cells after UV treatment as a function of AEPI-5 concentration.
Series [10] deals with T2, legumain in MDA MB231 breast cancer cells (Homo sapiens, UniProt Q99538).
T2 construct: endogenous in cells; host or cells: MDA-MB-231 human breast cancer cells
The series is described as follows: AEPI inhibitory assay, intracellular legumain activity. The format is cell-based. How it is done: AEPI Inhibitory Assay. Cancer cells were centrifuged at 800 rpm for 10 minutes and resuspended in DMEM to a density of 1.0×10^5 cells/ml. Approximately 5 ml of cells is used per assay plate. Cells (100 ul) were added to a 96-well plat bottom plate (10,000 cells/well, all the inner wells) and 100 ul of media was added to the outer wells. The cells were incubated at 37° C. overnight. The inhibitor compounds were diluted in a 96 well round bottom plate and the old media was removed from the cancer cell assay plate. The inhibitor (100 ul) was added to the cell assay plate and 200 ul of media was added to the outer wells. One to three days after the cancer cells were exposed to the inhibitor, the AEP activity was assessed as follows. Cells were detached with Trypsin-free cell-cell detachment media and transfer to Eppendorf tubes. Cells were then disrupted and the AEPI substrate was added to the cell lysate. This assay mixture was then incubated for an appropriate period of time and the amount of activated substrate was measured with fluorometer.

Series [11] relates to cancer cells. In words: chemo-sensitizing cytotoxic assay, TNF-α plus legumain inhibitor. The format is cell-based. The following applies: compared among AEPI-1 to AEPI-5. How it is done:
Chemo-sensitizing Cytotoxic Assay. Cancer cells were prepared for the assay as follows. The cells were centrifuged at 800 rpm for 10 minutes, resuspended in DMEM to a density of 1.0×10^5 cells/ml. Approximately 5 ml of cells were used per assay plate. Cells (100 ul) were added to a 96-well flat bottom plate (10,000 cells/well, all the inner wells) and 100 ul of media was added to the outer wells. The plates were incubated at 37° C. overnight. AEPI dilutions were prepared using a 96 well round bottom plate and medium as the diluent. After overnight incubation, the media was removed from the cancer cell assay plate, and the selected AEPI was added at the selected dilution or concentration. An additional 200 ul of media was added to the outer wells. Plates were incubated overnight at 37° C. XTT reagent (or other cell viability reagent) was prepared in phenol red free media. The media was removed from cells and 200 ul of fresh media containing the XTT reagent was added to all wells. The plates were incubated for 30 min to 4 hrs and cell viability was determined by reading the plates according to manufacturer specifications.

Peptide text beside a SMILES is read from it. * marks the point of attachment. Doxorubicin(3'-N) = COc1cccc2c1C(=O)c1c(O)c3c(c(O)c1C2=O)C[C@@](O)(C(=O)CO)C[C@@H]3O[C@H]1C[C@H](N*)[C@H](O)[C@H](C)O1; Boc = CC(C)(C)OC(=O)*

T2 sequence (Q99538 18-323): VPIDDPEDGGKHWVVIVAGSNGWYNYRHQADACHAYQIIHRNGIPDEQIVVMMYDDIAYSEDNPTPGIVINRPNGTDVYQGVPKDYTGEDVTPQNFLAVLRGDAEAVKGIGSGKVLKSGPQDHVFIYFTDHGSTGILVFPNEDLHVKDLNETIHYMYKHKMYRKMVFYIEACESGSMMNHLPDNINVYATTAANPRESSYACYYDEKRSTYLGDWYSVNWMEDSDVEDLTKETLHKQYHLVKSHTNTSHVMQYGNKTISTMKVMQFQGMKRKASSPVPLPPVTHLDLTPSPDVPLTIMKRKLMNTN
T1 sequence (Q99538 18-323): as above

On to `CC(C)C[C@H](NC(=O)[C@H]1O[C@@H]1C(=O)O)C(=O)NCCCCN=C(N)N` [E64, reference compound], for which the “increased invasion of extracellular matrix by legumain+ cells” value in [1] is “without effect”.
On to `COc1cccc2c1C(=O)c1c(O)c3c(c(O)c1C2=O)C[C@@](O)(C(=O)CO)C[C@@H]3O[C@H]1C[C@H](NC(=O)[C@H](CC(C)C)NC(=O)[C@H](CC(N)=O)NC(=O)[C@H](C)NC(=O)[C@H](C)NC(=O)OC(C)(C)C)[C@H](O)[C@H](C)O1` [legubicin, N-(-t-Butoxycarbonyl-L-alanyl-L-alanyl-L-asparaginyl-L-leucyl)doxorubicin] (Boc-AANL-{Doxorubicin(3'-N)}), for which the “cytotoxic effect on legumain+ 293 cells” value in [2] is “profound cytotoxic effect”. In addition, the “cytotoxic effect relative to that of doxorubicin” value in series [3] was “less than 1%”. Besides, in [4] (i.p. 5 mg/kg three times at 2 day intervals), the toxicity result is reported as “little evidence of toxicity”. The “injury in organs that express legumain (kidney, liver)” value in series [4] (single injection of 5 mg/kg) was “no injury was evident”.
For cystatin, in series [5], the “enhanced migration of legumain+ 293 cells” value was “inhibited”. Further, the “generation of the 62 kDa active gelatinase A by cells expressing legumain” value in series [6] is given as “inhibited”. Also, the legumain-promoted cell invasion entry in [7] is “partially inhibited”. The “increased invasion of extracellular matrix by legumain+ cells” value in series [1] was “inhibited”.
Take `CCOC(=O)C1OC1C(=O)N(CC(N)=O)NC(=O)C(C)NC(=O)C(C)NC(C)=O` [AEPI-5, N-acetyl-Ala-Ala-AzaAsn-(S,S)-EPCOOEt]: the “TNF-α induced cell death” value in series [8] is listed as “sensitizes MDA-MB-231 human breast cancer cells to TNF-α induced cell death”. For the same compound, the UV-induced apoptosis result in [9] is listed as “sensitizes legumain-expressing 293 cells to UV-induced apoptosis”. Also, the “inhibition of legumain activities in MDA MB231 breast cancer cells” value in series [10] (compared among AEPI-1 to AEPI-5) was “greatest inhibition”. The cell permeability result in series [10] (preliminary results) is reported as “sufficiently cell permeable”. In addition, the “cancer cell death on combined treatment with TNF-α” value in [11] is reported as “higher levels of cancer cell death”.

The record behind these values is patent publication US20110300147A9, “Inhibiting tumor cell invasion, metastasis and angiogenesis” (The Scripps Research institute, priority 2005, published 2011).
